Measurements from paper PMC9680624 (RSC Advances, 2022).
Converted amounts (≈) assume the structure as drawn.

Legend:
HepG-2 = experiment: In vitro anti-proliferative activity, MTT assay; assay type: cell-based; settings: Homo sapiens, HepG2, 24 h, read-out: In vitro cytotoxicity IC50 HepG-2
PC3 = experiment: In vitro anti-proliferative activity, MTT assay; assay type: cell-based; settings: Homo sapiens, PC-3, 24 h, read-out: In vitro cytotoxicity IC50 PC3
MCF-7 = experiment: In vitro anti-proliferative activity, MTT assay; assay type: cell-based; settings: Homo sapiens, MCF7, 24 h, read-out: In vitro cytotoxicity IC50 MCF-7
caspase-8 = experiment: Caspase-8 level in HepG-2 cell supernatant, ELISA; assay type: cell-based, human; settings: for increase of caspase-8 level: HepG-2 cells, versus control cells; for CASPASE-8 level: HepG-2 supernatant, ELISA, 10 μM, 72 h, control 1.08
VEGF = VEGF level in HepG-2 cell supernatant, ELISA; assay type: cell-based, human; settings: HepG-2 supernatant, 10 μM, 72 h, control 432.5
TNF-α = TNF-α level in HepG-2 cell supernatant, ELISA; assay type: cell-based, human; settings: HepG-2 supernatant, 10 μM, 72 h, control 162.5
NF-κB P65 = NF-κB P65 level in HepG-2 cell lysate, ELISA; assay type: cell-based, human; settings: 72 h, control 278.1
[1] = Cytotoxicity against Vero cells, MTT assay; assay type: cell-based; settings: African green monkey, Vero cells (normal, non-cancerous cell line)
Vero cells = experiment: Cytotoxicity against Vero cells, MTT assay; assay type: cell-based; settings: for Selectivity index (SI) HepG-2: SI = cytotoxicity against Vero cells/cytotoxicity against HepG-2 cell line; for Selectivity index (SI) PC3: SI = cytotoxicity against Vero cells/cytotoxicity against PC3 cell line

Structure (SMILES) | IC50 (HepG-2) [µg/mL] | IC50 (PC3) [µg/mL] | IC50 (MCF-7) [µg/mL] | increase of caspase-8 level (caspase-8) | CASPASE-8 level (caspase-8) [ng mL^−1] | VEGF level (VEGF) [pg/mL] | TNF-α level (TNF-α) [pg/mL] | NFκB P65 level (NF-κB P65) [pg/mL] | IC50 [1] [µg/mL] | Selectivity index (SI) HepG-2 (Vero cells) | Selectivity index (SI) MCF-7 (Vero cells; SI = cytotoxicity against Vero cells/cytotoxicity against MCF-7 cell line) | Selectivity index (SI) PC3 (Vero cells)
Cc1ccc(S(=O)(=O)NNc2nc(Cl)nc3cccc(Cl)c23)cc1 [Compound 19a, N′-(2,5-Dichloroquinazolin-4-yl)-4-methylbenzenesulfonohydrazide] | 19.1 ± 1.5 (≈ 49.8 µM) | 21.5 ± 1.6 (≈ 56 µM) | 12.8 ± 1 (≈ 33.3 µM) |  |  |  |  |  |  |  |  | 
O=C1CCC(N2C(=O)c3ccccc3C2=O)C(=O)N1 (stereo not shown) [Thalidomide, thalidomide, reference compound] | 11.3 ± 0.54 (≈ 43.6 µM) | 16.9 ± 0.7 (≈ 65.3 µM) | 14.6 ± 0.57 (≈ 56.5 µM) | 8 folds | 8.3 | 153.2 | 53.1 | 110.5 |  |  |  | 
O=S(=O)(NNc1nnc(Cl)c2ccccc12)c1ccccc1 [Compound 24c, N′-(4-Chlorophthalazin-1-yl)benzenesulfonohydrazide] | 7.96 ± 0.5 (≈ 23.8 µM) | 14.9 ± 1.1 (≈ 44.6 µM) | 8.12 ± 0.7 (≈ 24.3 µM) |  |  |  |  |  |  |  |  | 
O=C1CCC(Nc2nc(Cl)nc3ccc(Cl)cc23)C(=O)N1 (stereo not shown) [Compound 13b, 3-((2,6-Dichloroquinazolin-4-yl)amino)piperidine-2,6-dione] | 59 ± 3.3 (≈ 181 µM) | 38.4 ± 3.1 (≈ 118 µM) | 29.3 ± 2.3 (≈ 90.2 µM) |  |  |  |  |  |  |  |  | 
Fc1ccc(Nc2nc(Cl)nc3ccccc23)cc1Cl [Compound 6, 2-Chloro-N-(3-chloro-4-fluorophenyl)quinazolin-4-amine] | 74.8 ± 4.1 (≈ 243 µM) | 85 ± 4.7 (≈ 276 µM) | 81.5 ± 4.2 (≈ 265 µM) |  |  |  |  |  |  |  |  | 
CNc1nc(Nc2ccc(F)c(Cl)c2)c2ccccc2n1 [Compound 7a, N ^4-(3-Chloro-4-fluorophenyl)-N^2-methylquinazoline-2,4-diamine] | 40.5 ± 2.8 (≈ 134 µM) | 47.2 ± 2.8 (≈ 156 µM) | 28.1 ± 2.1 (≈ 92.9 µM) |  |  |  |  |  |  |  |  | 
Fc1ccc(Nc2nc(Cl)nc3ccc(Cl)cc23)cc1Cl [Compound 11b, 2,6-Dichloro-N-(3-chloro-4-fluorophenyl)quinazolin-4-amine] | 38.7 ± 2.8 (≈ 113 µM) | 51.2 ± 3.5 (≈ 149 µM) | 45.9 ± 3 (≈ 134 µM) |  |  |  |  |  |  |  |  | 
CCNc1nc(Nc2ccc(F)c(Cl)c2)c2ccccc2n1 [Compound 7b, N ^4-(3-Chloro-4-fluorophenyl)-N^2-ethylquinazoline-2,4-diamine] | 11.7 ± 0.8 (≈ 36.9 µM) | 15.5 ± 1.3 (≈ 48.9 µM) | 9.45 ± 0.9 (≈ 29.8 µM) | threefold increase | 3.2 | 218.5 | 79.3 | 113.7 | 163.6 ± 1.12 (≈ 516 µM) | 13.78 | 17.04 | 10.40
O=S(=O)(NNc1nc(Cl)nc2cccc(Cl)c12)c1ccc(F)cc1 [Compound 19b, N′-(2,5-Dichloroquinazolin-4-yl)-4-fluorobenzenesulfonohydrazide] | 28.9 ± 2.2 (≈ 74.7 µM) | 32.7 ± 2.3 (≈ 84.5 µM) | 20.5 ± 1.5 (≈ 52.9 µM) |  |  |  |  |  |  |  |  | 
O=C1CCC(Nc2nc(Cl)nc3cccc(Cl)c23)C(=O)N1 (stereo not shown) [Compound 13a, 3-((2,5-Dichloroquinazolin-4-yl)amino)piperidine-2,6-dione] | 46.3 ± 3.1 (≈ 142 µM) | 54.3 ± 3 (≈ 167 µM) | 35.3 ± 2.4 (≈ 109 µM) |  |  |  |  |  |  |  |  | 
O=S(=O)(NNc1nnc(Cl)c2ccccc12)c1ccc(F)cc1 [Compound 24b, N′-(4-Chlorophthalazin-1-yl)-4-fluorobenzenesulfonohydrazide] | 2.51 ± 0.1 (≈ 7.11 µM) | 4.11 ± 0.3 (≈ 11.7 µM) | 5.8 ± 0.4 (≈ 16.4 µM) | about 7 folds | 6.9 | 185.3 | 82.5 | 76.5 | 161.1 ± 1.42 (≈ 457 µM) | 65.18 |  | 39.80
NC(=O)NNc1nc(Cl)nc2ccc(Cl)cc12 [Compound 15b, 2-(2,6-Dichloroquinazolin-4-yl)hydrazine-1-carboxamide] | 16.2 ± 1.4 (≈ 59.5 µM) | 13.8 ± 1.2 (≈ 50.7 µM) | 9.87 ± 0.9 (≈ 36.3 µM) |  |  |  |  |  |  |  |  | 
NC(=O)NNc1nc(Cl)nc2cccc(Cl)c12 [Compound 15a, 2-(2,5-Dichloroquinazolin-4-yl)hydrazine-1-carboxamide] | 24.5 ± 2 (≈ 90.1 µM) | 26.1 ± 2 (≈ 95.8 µM) | 17.3 ± 1.3 (≈ 63.7 µM) |  |  |  |  |  |  |  |  | 
Fc1ccc(Nc2nc(Cl)nc3cccc(Cl)c23)cc1Cl [Compound 11a, 2,5-Dichloro-N-(3-chloro-4-fluorophenyl)quinazolin-4-amine] | 77.2 ± 4.2 (≈ 225 µM) | 91.3 ± 4.9 (≈ 266 µM) | 86.1 ± 4.4 (≈ 251 µM) |  |  |  |  |  |  |  |  | 
Cc1ccc(S(=O)(=O)NNc2nnc(Cl)c3ccccc23)cc1 [Compound 24a, N′-(4-Chlorophthalazin-1-yl)-4-methylbenzenesulfonohydrazide] | 3.87 ± 0.2 (≈ 11.1 µM) | 8.63 ± 0.6 (≈ 24.7 µM) | 6.07 ± 0.7 (≈ 17.4 µM) |  |  |  |  |  |  |  |  | 
